What was measured:
Assay type in all cases: cell-based
[1] = tested on: oxidative phosphorylation pathway of mitochondria; test: Cellular oxygen consumption (OCR), XFe metabolic analysis system; conditions: NCI-H82 cell; 73.2 μM; within half an hour; FIG. 1
Description: The oxygen required by cell was mainly consumed in the mitochondria respiratory chain, so the measurement of cellular oxygen consumption (OCR, oxygen consumption rate) could directly reflect the activity of the oxidative phosphorylation pathway of mitochondria. In this experiment, the XFe metabolic analysis system was used to measure the oxygen consumption of NCI-H82 cell in the presence or absence of Compound SJ2858 (baicalein) and Compound SJ2775 (baicalin).
Rotenone (abbreviated as RO, 0.5 μM) is a known inhibitor of mitochondria oxidative phosphorylation pathway complex I, Antimycin A (abbreviated as AA, 0.5 μM) is a known inhibitor of mitochondria oxidative phosphorylation pathway complex III. Compound SJ2858, 73.2 μM; Compound SJ2775, 118.2 μM.

[2] = tested on: U-937; test: Cell viability CellTiter-Glo, U-937; conditions: Homo sapiens; U-937, lymphoma
Description: (§1) Cell viability was measured by using the Promega CellTiter-Glo kit, the kit reflected cell viability by directly measuring intracellular ATP content. Different cancer cells were cultured in culture medium, and the 50% inhibitory concentration IC50 of the compound SJ2858 was measured by Promega CellTiter-Glo kit. The name source and culture condition of each tumor cell line were as follows:
Cell line U-937 (ATCC, No. CRL-1593.2) was cultured in RPMI1640 medium containing 10% fetal bovine serum (+P/S);

[3] = tested on: SNU-398; test: Cell viability CellTiter-Glo, SNU-398; conditions: Homo sapiens; SNU-398, liver cancer
Description: as §1
Cell line SNU-398 (ATCC, No. CRL-2233) was cultured in RPMI1640 medium (+P/S); containing 10% fetal bovine serum (+P/S);

[4] = tested on: Jurkat, Clone E6-1; test: Cell viability CellTiter-Glo, Jurkat, Clone E6-1; conditions: Homo sapiens, Clone E6-1, leukemia
Description: as §1
Cell line Jurkat, Clone E6-1 (ATCC, No. TIB-152) was cultured in RPMI1640 medium containing 10% fetal bovine serum (+P/S);

[5] = tested on: D283 Med; test: Cell viability CellTiter-Glo, D283 Med; conditions: Homo sapiens, brain cancer
Description: as §1
Cell line D283 Med (ATCC, No. HTB-185) was cultured in EMEM medium containing 10% fetal bovine serum (+P/S);

[6] = tested on: OCI-LY-19; test: Cell viability CellTiter-Glo, OCI-LY-19; conditions: Homo sapiens, OCI-LY19; OCI-LY-19, lymphoma
Description: as §1
Cell line OCI-LY-19 (DSMZ, code ACC-528) was cultured in 80-90% alpha-MEM medium containing 10-20% h.i. FBS (+P/S);

[7] = tested on: MDA-MB-453; test: Cell viability CellTiter-Glo, MDA-MB-453; conditions: Homo sapiens; MDA-MB-453, breast cancer
Description: as §1
Cell line MDA-MB-453 (ATCC, No. HTB-131) was cultured in Leibovitz's L-15 medium containing 10% fetal bovine serum (+P/S);

[8] = tested on: CCRF-CEM; test: Cell viability CellTiter-Glo, CCRF-CEM; conditions: Homo sapiens, leukemia
Description: as §1
Cell line CCRF-CEM (ATCC, No. CCL-119) was cultured in RPMI1640 medium containing 10% fetal bovine serum (+P/S);

[9] = tested on: OCI-AML-3; test: Cell viability CellTiter-Glo, OCI-AML-3; conditions: Homo sapiens; OCI-AML-3, leukemia
Description: as §1
Cell line OCI-AML-3 (DSMZ, No. ACC-582) was cultured in RPMI1640 medium containing 20% fetal bovine serum (+P/S);

[10] = tested on: CHL-1; test: Cell viability CellTiter-Glo, CHL-1; conditions: Homo sapiens; CHL-1, melanoma
Description: as §1
Cell line CHL-1 (ATCC, No. CRL-9446) was cultured in DMEM medium containing 10% fetal bovine serum (+P/S);

[11] = tested on: LS 180; test: Cell viability CellTiter-Glo, LS 180; conditions: Homo sapiens, LS180; LS 180, intestinal cancer
Description: as §1, with “follows: […]” for “follows:”

[12] = tested on: 786-O; test: Cell viability CellTiter-Glo, 786-O; conditions: Homo sapiens, 786-0, kidney cancer
Description: as §1
Cell line 786-O (ATCC, No. CRL-1932) was cultured in RPMI1640 medium containing 10% fetal bovine serum (+P/S);

[13] = tested on: SF126; test: Cell viability CellTiter-Glo, SF126; conditions: Homo sapiens, SF-126; SF126, brain cancer
Description: as §1
Cell line SF126 (JCRB, No. IFO50286) was cultured in EMEM medium containing 10% fetal bovine serum (+P/S);

[14] = tested on: U-87 MG; test: Cell viability CellTiter-Glo, U-87 MG; conditions: Homo sapiens, brain cancer
Description: as §1
Cell line U-87MG (ATCC, No. HTB-14) was cultured in EMEM medium containing 10% fetal bovine serum (+P/S);

[15] = tested on: WSU-DLCL2; test: Cell viability CellTiter-Glo, WSU-DLCL2; conditions: Homo sapiens, WSUDLCL2; WSU-DLCL2, lymphoma
Description: as §1
Cell line WSU-DLCL2 (DSMZ, No. ACC-575) was cultured in RPMI1640 medium containing 10% fetal bovine serum (+P/S);

[16] = tested on: C3A; test: Cell viability CellTiter-Glo, C3A; conditions: Homo sapiens, liver cancer
Description: as §1
Cell line C3A (ATCC, No. CRL-10741) was cultured in EMEM medium containing 10% fetal bovine serum (+P/S);

[17] = tested on: NCI-H 1793; test: Cell viability CellTiter-Glo, NCI-H 1793; conditions: Homo sapiens, NCI-H1793; NCI-H 1793, lung cancer
Description: as §1
Cell line NCI-H1793 (ATCC, No. CRL-5896) was cultured in HITES medium containing 5% fetal bovine serum (+P/S);

[18] = tested on: DU 145; test: Cell viability CellTiter-Glo, DU 145; conditions: Homo sapiens; DU 145, prostate cancer
Description: as §1
Cell line DU 145 (ATCC, No. HTB-81) was cultured in EMEM medium containing 10% fetal bovine serum (+P/S);

[19] = tested on: G-361; test: Cell viability CellTiter-Glo, G-361; conditions: Homo sapiens; G-361, melanoma
Description: as §1
Cell line G-361 (ATCC, No. CRL-1424) was cultured in McCoy's 5a medium containing 10% fetal bovine serum (+P/S).

In the case of `O=c1cc(-c2ccccc2)oc2cc(O)c(O)c(O)c12` [Compound SJ2858, baicalein], the “Inhibition of oxygen consumption (in words)” value [1] is reported as “significantly inhibit”, the IC50 [2] is reported as 39.2 µM and the IC50 [3] is reported as 13 µM. For the same compound, the IC50 [4] was 14.2 µM, the IC50 [5] was 12.9 µM and the IC50 [6] was 52.3 µM. For the same compound, the IC50 [7] was 75.3 µM, the IC50 [8] was 14.7 µM and the IC50 [9] was 62.3 µM. For the same compound, the IC50 [10] was 9.5 µM, the IC50 [11] was 17.4 µM and the IC50 [12] was 10.6 µM. The IC50 [13] was 14 µM, the IC50 [14] was 19 µM and the IC50 [15] was 21.3 µM. The IC50 [16] was 27 µM, the IC50 [17] was 35.2 µM and the IC50 [18] was 37.8 µM. The IC50 [19] was 33.6 µM.

Source: patent publication US20230098254A1, “SCUTELLARIAE RADIX COMPOUNDS AND USE THEREOF FOR INHIBITING OXIDATIVE PHOSPHORYLATION PATHWAY OF MITOCHONDRIA” (priority 2020, published 2023)
